Laboratory results as given in patent US11452682B2, “Toothpaste composition for alleviating dentin hyperesthesia” (HYSENSBIO, priority 2018, dated 2022).

Test system: DSPP gene
Experiment: mRNA level of DSPP gene in MDPC-23 cells by RT-PCR and real-time PCR
Type: cell-based, mouse
Conditions: cultured 48 hours with peptide, relative ratio to mRNA level in untreated control, Gapdh internal control, repeated three times
Experimental: The MDPC-23 cells cultured in Example 2-1 were treated with the peptides of each group synthesized in Example 1, then cultured for 48 hours. The mRNA level of the DSPP, an odontoblast differentiation marker gene, expressed in the MDPC-23 cells were measured, and the measured mRNA level of each DSPP gene was converted into a relative ratio to the mRNA level of the DSPP gene measured in control (Tables 13 to 24). In addition, the average value of the mRNA level of the DSPP gene measured according to the peptides of each group was compared (FIG. 1B). At this time, as a control, MDPC-23 cells that were not treated with the peptide promoting differentiation of odontoblast were used.
The expression level of the DSPP gene was measured through RT-PCR and real-time PCR analysis: Specifically, total RNA was extracted from the MDPC-23 cells using TRIzol reagent. 2 μg of the total RNA, 1 μl of reverse transcriptase, and 0.5 μg of oligo (oligo; dT) were used to synthesize cDNA. The synthesized cDNA was used in a real-time polymerase chain reaction. The real-time polymerase chain reaction was performed on an ABI PRISM 7500 sequence detection system (Applied Biosystems) and an SYBR GREEN PCR Master Mix (Takara, Japan). The real-time polymerase chain reaction was performed under conditions of 94° C., 1 min; 95° C., 15 sec; 60° C., 34 sec for 40 cycles. Results were analyzed by a comparative cycle threshold (CT) method. At this time, the Gapdh gene was used as the internal control group, and the measured value was repeated three times. The mean value and standard deviation value thereof were used.

Row | Substance | mRNA level of Dspp gene Mean
1 | 1 (KYQRRKKNKY; Novel peptide) [compound 1] | 1.754
2 | 2 (KYQRRKRNKY; Novel peptide) [compound 2] | 1.646
3 | 4 (KYQRRRRNKY; Novel peptide) [compound 4] | 1.855
4 | 5 (KYQRKKKNKY; Novel peptide) [compound 5] | 1.639
5 | 6 (KYQRKRKNKY; Novel peptide) [compound 6] | 1.746
6 | 7 (KYQRKKRNKY; Novel peptide) [compound 7] | 1.864
7 | 8 (KYQRKRRNKY; Novel peptide) [compound 8] | 1.639
8 | 9 (KYQRRKKSKY; Novel peptide) [compound 9] | 1.854
9 | 10 (KYQRRKRSKY; Novel peptide) [compound 10] | 1.746
10 | 11 (KYQRRRKSKY; Novel peptide) [compound 11] | 1.639
11 | 12 (KYQRRRRSKY; Novel peptide) [compound 12] | 1.548
12 | 13 (KYQRKKKSKY; Novel peptide) [compound 13] | 1.685
13 | 14 (KYQRKRKSKY; Novel peptide) [compound 14] | 1.846
14 | 15 (KYQRKKRSKY; Novel peptide) [compound 15] | 1.964
15 | 16 (KYQRKRRSKY; Novel peptide) [compound 16] | 1.739
16 | 17 (KYQRRKKNYK; Novel peptide) [compound 17] | 2.117
17 | 18 (KYQRRKRNYK; Novel peptide) [compound 18] | 2.319
18 | 19 (KYQRRRKNYK; Novel peptide) [compound 19] | 1.931
19 | 20 (KYQRRRRNYK; Novel peptide) [compound 20] | 2.553
20 | 21 (KYQRKKKNYK; Novel peptide) [compound 21] | 1.893
21 | 22 (KYQRKRKNYK; Novel peptide) [compound 22] | 2.412
22 | 23 (KYQRKKRNYK; Novel peptide) [compound 23] | 2.171

Row | Substance | mRNA level of Dspp gene Mean
23 | 24 (KYQRKRRNYK; Novel peptide) [compound 24] | 2.212
24 | 25 (KYQRRKKSYK; Novel peptide) [compound 25] | 2.371
25 | 26 (KYQRRKRSYK; Novel peptide) [compound 26] | 2.193
26 | 27 (KYQRRRKSYK; Novel peptide) [compound 27] | 1.993
27 | 28 (KYQRRRRSYK; Novel peptide) [compound 28] | 2.453
28 | 29 (KYQRKKKSYK; Novel peptide) [compound 29] | 1.883
29 | 30 (KYQRKRKSYK; Novel peptide) [compound 30] | 2.512
30 | 31 (KYQRKKRSYK; Novel peptide) [compound 31] | 2.371
31 | 32 (KYQRKRRSYK; Novel peptide) [compound 32] | 2.219
32 | 33 (KYRQRKKNKY; Novel peptide) [compound 33] | 1.712
33 | 34 (KYRQRKRNKY; Novel peptide) [compound 34] | 1.931
34 | 35 (KYRQRRKNKY; Novel peptide) [compound 35] | 1.983
35 | 36 (KYRQRRRNKY; Novel peptide) [compound 36] | 2.319
36 | 37 (KYRQKKKNKY; Novel peptide) [compound 37] | 1.597
37 | 38 (KYRQKRKNKY; Novel peptide) [compound 38] | 2.116
38 | 39 (KYRQKKRNKY; Novel peptide) [compound 39] | 1.712
39 | 40 (KYRQKRRNKY; Novel peptide) [compound 40] | 2.219
40 | 41 (KYRQRKKSKY; Novel peptide) [compound 41] | 1.546
41 | 42 (KYRQRKRSKY; Novel peptide) [compound 42] | 1.586
42 | 43 (KYRQRRKSKY; Novel peptide) [compound 43] | 1.669
43 | 44 (KYRQRRRSKY; Novel peptide) [compound 44] | 1.793
44 | 45 (KYRQKKKSKY; Novel peptide) [compound 45] | 1.532

Row | Substance | mRNA level of Dspp gene Mean
45 | 46 (KYRQKRKSKY; Novel peptide) [compound 46] | 1.887
46 | 47 (KYRQKKRSKY; Novel peptide) [compound 47] | 1.697
47 | 48 (KYRQKRRSKY; Novel peptide) [compound 48] | 1.558
48 | 49 (KYRQRKKNYK; Novel peptide) [compound 49] | 1.923
49 | 50 (KYRQRKRNYK; Novel peptide) [compound 50] | 1.887
50 | 51 (KYRQRRKNYK; Novel peptide) [compound 51] | 1.601
51 | 52 (KYRQRRRNYK; Novel peptide) [compound 52] | 2.019
52 | 53 (KYRQKKKNYK; Novel peptide) [compound 53] | 1.592
53 | 54 (KYRQKRKNYK; Novel peptide) [compound 54] | 1.437
54 | 55 (KYRQKKRNYK; Novel peptide) [compound 55] | 1.663
55 | 56 (KYRQKRRNYK; Novel peptide) [compound 56] | 1.701
56 | 57 (KYRQRKKSYK; Novel peptide) [compound 57] | 2.039
57 | 58 (KYRQRKRSYK; Novel peptide) [compound 58] | 1.998
58 | 59 (KYRQRRKSYK; Novel peptide) [compound 59] | 1.792
59 | 60 (KYRQRRRSYK; Novel peptide) [compound 60] | 2.107
60 | 61 (KYRQKKKSYK; Novel peptide) [compound 61] | 2.301
61 | 62 (KYRQKRKSYK; Novel peptide) [compound 62] | 1.672
62 | 63 (KYRQKKRSYK; Novel peptide) [compound 63] | 1.769
63 | 64 (KYRQKRRSYK; Novel peptide) [compound 64] | 1.967
64 | 65 (KYKQRKKNKY; Novel peptide) [compound 65] | 1.723
65 | 66 (KYKQRKRNKY; Novel peptide) [compound 66] | 1.627
66 | 67 (KYKQRRKNKY; Novel peptide) [compound 67] | 1.777

Row | Substance | mRNA level of Dspp gene Mean
67 | 68 (KYKQRRRNKY; Novel peptide) [compound 68] | 1.432
68 | 69 (KYKQKKKNKY; Novel peptide) [compound 69] | 2.011
69 | 70 (KYKQKRKNKY; Novel peptide) [compound 70] | 1.927
70 | 71 (KYKQKKRNKY; Novel peptide) [compound 71] | 1.879
71 | 72 (KYKQKRRNKY; Novel peptide) [compound 72] | 2.011
72 | 73 (KYKQRKKSKY; Novel peptide) [compound 73] | 2.035
73 | 74 (KYKQRKRSKY; Novel peptide) [compound 74] | 2.011
74 | 75 (KYKQRRKSKY; Novel peptide) [compound 75] | 1.997
75 | 76 (KYKQRRRSKY; Novel peptide) [compound 76] | 2.351
76 | 77 (KYKQKKKSKY; Novel peptide) [compound 77] | 1.729
77 | 78 (KYKQKRKSKY; Novel peptide) [compound 78] | 2.635
78 | 79 (KYKQKKRSKY; Novel peptide) [compound 79] | 2.231
79 | 80 (KYKQKRRSKY; Novel peptide) [compound 80] | 1.837
80 | 81 (KYKQRKKNYK; Novel peptide) [compound 81] | 3.092
81 | 82 (KYKQRKRNYK; Novel peptide) [compound 82] | 3.361
82 | 83 (KYKQRRKNYK; Novel peptide) [compound 83] | 3.572
83 | 84 (KYKQRRRNYK; Novel peptide) [compound 84] | 3.702
84 | 85 (KYKQKKKNYK; Novel peptide) [compound 85] | 3.67
85 | 86 (KYKQKRKNYK; Novel peptide) [compound 86] | 3.705
86 | 87 (KYKQKKRNYK; Novel peptide) [compound 87] | 3.888
87 | 88 (KYKQKRRNYK; Novel peptide) [compound 88] | 4.021
